Measured values: patent publication US10125142B2, “Method for purifying mitomycin C” (Kyowa Hakko Kirin Co., Ltd., priority 2015, dated 2018)

Assay: Change in the number of particles in mitomycin C in a stability test under severe conditions (MFI DPA5200 particle quantification)
Assay type: physicochemical
Details: for number of particles ≥10 μm in 10 mg of mitomycin C / number of particles ≥25 μm in 10 mg of mitomycin C: average of triplicates; for change in number of particles having a diameter of 10 μm or more / change in number of particles having a diameter of 25 μm or more: after 300-hour exposure to severe conditions (50° C.), result in words
Method: Change in the Number of Particles in Mitomycin C in a Stability Test under Severe Conditions
300 mg of each mitomycin C prepared in Example 1 and Comparative Examples 1 and 2 is separately placed into a vial, and stored at 50° C. under uncontrolled humidity. Sampling was performed after 0, 191 and 300 hours from the onset of the storage, and whether the number of particles would increase was examined according to the following section “Quantification of Particles in Mitomycin C”.
Quantification of Particles in Mitomycin C
10 mg of mitomycin C was weighed out accurately, water for injection was added to make up the volume to 25 mL exactly, and the resulting solution was used as a sample solution.
The particles in mitomycin C were analyzed with MFI DPA5200 (Protein Simple). Prior to the analysis of the sample solution, the passage in the analytical device was washed with water for injection to obtain the particle-free baseline. 1 mL of the sample solution was drawn into a pipette tip and then loaded on the sample holder. The sample solution was allowed to pass into the passage at a flow rate 0.1 mL/min to completely replace the liquid in the passage, and then the analysis of the sample; solution was started (volume for analysis: 0.61 mL).
The obtained data was filtered on MVAS 1.3 software to extract particles having an aspect ratio of less than 0.85 for the purpose of excluding bubbles. The number of particles having a diameter of 10 μm or more in 10 mg of mitomycin C and the number of particles having a diameter of 25 μm or more in 10 mg of mitomycin C were separately counted using Microsoft Excel.
The above procedure was repeated 3 times, and the average value of the triplicates was used as the quantitative value.

[1] = 191 hours storage at 50° C. under uncontrolled humidity
[2] = 300 hours storage at 50° C. under uncontrolled humidity
[3] = Initial (0 hours), storage at 50° C. under uncontrolled humidity

With `CO[C@@]12[C@H](COC(N)=O)C3=C(C(=O)C(C)=C(N)C3=O)N1C[C@@H]1N[C@@H]12` [Comparative Example 1, Mitomycin C] as the compound, how does the “number of particles ≥10 μm in 10 mg of mitomycin C” value (shortened to “number of particles ≥10 μm”) [1] read?
Its value is 7063.

And the “number of particles ≥25 μm in 10 mg of mitomycin C” value (from here on “number of particles ≥25 μm”) [1]?
The value was 861.

And the “number of particles ≥10 μm” value [2]?
Its value is 22527.

And the “number of particles ≥25 μm” value [2]?
Its value is 3005.

What about the “number of particles ≥10 μm” value [3] of the same compound?
Its value is 2118.

And the “number of particles ≥25 μm” value [3]?
Its value is 246.

What about the “change in number of particles having a diameter of 10 μm or more” value (“change in number … of 10 μm or more” for short) of the same compound?
Its value is “significant increase”.

What about the “change in number of particles having a diameter of 25 μm or more” value (from here on “change in number … of 25 μm or more”) of the same compound?
Its value is “significant increase”.

Which “number of particles ≥10 μm” value [1] does the source give for `CO[C@@]12[C@H](COC(N)=O)C3=C(C(=O)C(C)=C(N)C3=O)N1C[C@@H]1N[C@@H]12` [Comparative Example 2, Mitomycin C] here?
Its value is 279617.

And the “number of particles ≥25 μm” value [1]?
The value was 51953.

And the “number of particles ≥10 μm” value [2]?
The value was 301967.

And the “number of particles ≥25 μm” value [2]?
Its value is 36216.

What about the “number of particles ≥10 μm” value [3] of the same compound?
The value was 3853.

What about the “number of particles ≥25 μm” value [3] of the same compound?
Its value is 178.

And the “change in number … of 10 μm or more” value?
The value was “significant increase”.

And the “change in number … of 25 μm or more” value?
Its value is “significant increase”.

Which “number of particles ≥10 μm” value [1] does the source give for `CO[C@@]12[C@H](COC(N)=O)C3=C(C(=O)C(C)=C(N)C3=O)N1C[C@@H]1N[C@@H]12` [Example 1, mitomycin C] here?
The value was 3624.

What about the “number of particles ≥25 μm” value [1] of the same compound?
Its value is 273.

What about the “number of particles ≥10 μm” value [2] of the same compound?
The value was 5683.

What about the “number of particles ≥25 μm” value [2] of the same compound?
Its value is 314.

What about the “number of particles ≥10 μm” value [3] of the same compound?
The value was 3047.

And the “number of particles ≥25 μm” value [3]?
The value was 151.

And the “change in number … of 10 μm or more” value?
The value was “almost no increase”.

And the “change in number … of 25 μm or more” value?
Its value is “almost no increase”.
